Calls of active or inactive are those of the source. No cut-off for these calls is given here.
Tests used:
[1] = target: Phosphatidylinositol 4,5-bisphosphate 3-kinase catalytic subunit alpha isoform (Homo sapiens, UniProt P42336); test: Inhibition of PI3Kalpha (unknown origin) using PIP2 as substrate incubated for 1 hrs in presence of ATP by ADP-Glo kinase assay
MM1.S = test: Antiproliferative activity against human MM1.S cells incubated for 48 hrs by resazurin dye based fluorescence micro plate reader analysis; assay type: functional, cell-based
JeKo-1 [2] = test: Antiproliferative activity against human JeKo-1 cells incubated for 48 hrs by resazurin dye based fluorescence micro plate reader analysis; assay type: functional, cell-based; details: JeKo-1, 48 h
HL-60 = test: Antiproliferative activity against human HL-60 cells incubated for 48 hrs by resazurin dye based fluorescence micro plate reader analysis; assay type: functional, cell-based; details: HL-60, 48 h
MDA-MB-231 = test: Antiproliferative activity against human MDA-MB-231 cells incubated for 48 hrs by resazurin dye based fluorescence micro plate reader analysis; assay type: functional, cell-based; details: MDA-MB-231, 48 h
[3] = Cytotoxicity against human HL7702 cells incubated for 48 hrs by resazurin dye based fluorescence micro plate reader analysis; assay type: toxicity, cell-based; details: HL7702 (L02) cells
JeKo-1 [4] = test: Induction of apoptosis in human JeKo-1 cells assessed as viable cells at 0.25 uM incubated for 48 hrs by Annexin-V/FITC and PI staining based flow cytometric analysis (reference value: 94.1%); assay type: functional; details: read-out: Activity
JeKo-1 [5] = test: Induction of apoptosis in human JeKo-1 cells assessed as late apoptotic cells at 0.25 uM incubated for 48 hrs by Annexin-V/FITC and PI staining based flow cytometric analysis (reference value: 3.66%); assay type: functional
JeKo-1 [6] = test: Induction of apoptosis in human JeKo-1 cells assessed as necrotic cells at 0.25 uM incubated for 48 hrs by Annexin-V/FITC and PI staining based flow cytometric analysis (reference value: 1.05%); assay type: functional
JeKo-1 [7] = test: Induction of apoptosis in human JeKo-1 cells assessed as viable cells at 0.5 uM incubated for 48 hrs by Annexin-V/FITC and PI staining based flow cytometric analysis (reference value: 94.1%); assay type: functional; details: read-out: Activity
JeKo-1 [8] = test: Induction of apoptosis in human JeKo-1 cells assessed as late apoptotic cells at 0.5 uM incubated for 48 hrs by Annexin-V/FITC and PI staining based flow cytometric analysis (reference value: 3.66%); assay type: functional
JeKo-1 [9] = test: Induction of apoptosis in human JeKo-1 cells assessed as necrotic cells at 0.5 uM incubated for 48 hrs by Annexin-V/FITC and PI staining based flow cytometric analysis (reference value: 1.05%); assay type: functional
JeKo-1 [10] = test: Induction of apoptosis in human JeKo-1 cells assessed as viable cells at 1 uM incubated for 48 hrs by Annexin-V/FITC and PI staining based flow cytometric analysis (reference value: 94.1%); assay type: functional; details: read-out: Activity
JeKo-1 [11] = test: Induction of apoptosis in human JeKo-1 cells assessed as late apoptotic cells at 1 uM incubated for 48 hrs by Annexin-V/FITC and PI staining based flow cytometric analysis (reference value: 3.66%); assay type: functional
JeKo-1 [12] = test: Induction of apoptosis in human JeKo-1 cells assessed as necrotic cells at 1 uM incubated for 48 hrs by Annexin-V/FITC and PI staining based flow cytometric analysis (reference value: 1.05%); assay type: functional
[13] = Inhibition of PI3K/AKT/mTOR signaling in human JeKo-1 cells assessed as decrease in AKT phosphorylation at S473 residue at 0.25 uM incubated for 24 hrs by Western blot analysis; assay type: cell-based
JeKo-1 [14] = test: Effect on total AKT protein level in human JeKo-1 cells at 0.25 uM incubated for 24 hrs by Western blot analysis; assay type: functional, cell-based
JeKo-1 [15] = test: Potentiation of CI994-induced apoptosis in human JeKo-1 cells; assay type: functional, cell-based
Histone deacetylase 1 = Histone deacetylase 1 (Homo sapiens, UniProt Q13547); test: Inhibition of HDAC1 (unknown origin) using Boc-Lys(acetyl)-AMC as substrate preincubated for 1 hrs followed by substrate addition and measured after 2 hrs by spectrophotometer based fluorometric assay
Histone deacetylase 2 = Histone deacetylase 2 (Homo sapiens, UniProt Q92769); test: Inhibition of HDAC2 (unknown origin) using Boc-Lys(acetyl)-AMC as substrate preincubated for 1 hrs followed by substrate addition and measured after 2 hrs by spectrophotometer based fluorometric assay
Histone deacetylase 3 = Histone deacetylase 3 (Homo sapiens, UniProt O15379); test: Inhibition of HDAC3 (unknown origin) using Boc-Lys(acetyl)-AMC as substrate preincubated for 1 hrs followed by substrate addition and measured after 2 hrs by spectrophotometer based fluorometric assay
JeKo-1 [16] = test: Induction of apoptosis in human JeKo-1 cells assessed as early apoptotic cells at 0.25 uM incubated for 48 hrs by Annexin-V/FITC and PI staining based flow cytometric analysis (reference value: […]); assay type: functional
JeKo-1 [17] = test: Induction of apoptosis in human JeKo-1 cells assessed as early apoptotic cells at 0.5 uM incubated for 48 hrs by Annexin-V/FITC and PI staining based flow cytometric analysis (reference value: […]); assay type: functional
JeKo-1 [18] = test: Induction of apoptosis in human JeKo-1 cells assessed as early apoptotic cells at 1 uM incubated for 48 hrs by Annexin-V/FITC and PI staining based flow cytometric analysis (reference value: […]); assay type: functional
JeKo-1 [19] = test: Synergistic antiproliferative activity against human JeKo-1 cells assessed as combination index at 5 uM incubated for 48 hrs in presence of 5 uM 4-(3-(4-(4-methoxy-6-morpholino-1,3,5-triazin-2-yl)phenyl)urea)-N-(2-ethylamino)ethylbenzamide by resazurin dye based fluorescence microplate reader analysis; assay type: functional
JeKo-1 [20] = test: Synergistic antiproliferative activity against human JeKo-1 cells assessed as combination index at 2.5 uM incubated for 48 hrs in presence of 5 uM 4-(3-(4-(4-methoxy-6-morpholino-1,3,5-triazin-2-yl)phenyl)urea)-N-(2-ethylamino)ethylbenzamide by resazurin dye based fluorescence microplate reader analysis; assay type: functional
JeKo-1 [21] = test: Synergistic antiproliferative activity against human JeKo-1 cells assessed as combination index at 1.25 uM incubated for 48 hrs in presence of 5 uM 4-(3-(4-(4-methoxy-6-morpholino-1,3,5-triazin-2-yl)phenyl)urea)-N-(2-ethylamino)ethylbenzamide by resazurin dye based fluorescence microplate reader analysis; assay type: functional
JeKo-1 [22] = test: Synergistic antiproliferative activity against human JeKo-1 cells assessed as combination index at 0.625 uM incubated for 48 hrs in presence of 5 uM 4-(3-(4-(4-methoxy-6-morpholino-1,3,5-triazin-2-yl)phenyl)urea)-N-(2-ethylamino)ethylbenzamide by resazurin dye based fluorescence microplate reader analysis; assay type: functional
JeKo-1 [23] = test: Synergistic antiproliferative activity against human JeKo-1 cells assessed as combination index at 5 uM incubated for 48 hrs in presence of 2.5 uM 4-(3-(4-(4-methoxy-6-morpholino-1,3,5-triazin-2-yl)phenyl)urea)-N-(2-ethylamino)ethylbenzamide by resazurin dye based fluorescence microplate reader analysis; assay type: functional
JeKo-1 [24] = test: Synergistic antiproliferative activity against human JeKo-1 cells assessed as combination index at 2.5 uM incubated for 48 hrs in presence of 2.5 uM 4-(3-(4-(4-methoxy-6-morpholino-1,3,5-triazin-2-yl)phenyl)urea)-N-(2-ethylamino)ethylbenzamide by resazurin dye based fluorescence microplate reader analysis; assay type: functional
JeKo-1 [25] = test: Synergistic antiproliferative activity against human JeKo-1 cells assessed as combination index at 1.25 uM incubated for 48 hrs in presence of 2.5 uM 4-(3-(4-(4-methoxy-6-morpholino-1,3,5-triazin-2-yl)phenyl)urea)-N-(2-ethylamino)ethylbenzamide by resazurin dye based fluorescence microplate reader analysis; assay type: functional
JeKo-1 [26] = test: Synergistic antiproliferative activity against human JeKo-1 cells assessed as combination index at 0.625 uM incubated for 48 hrs in presence of 2.5 uM 4-(3-(4-(4-methoxy-6-morpholino-1,3,5-triazin-2-yl)phenyl)urea)-N-(2-ethylamino)ethylbenzamide by resazurin dye based fluorescence microplate reader analysis; assay type: functional
JeKo-1 [27] = test: Synergistic antiproliferative activity against human JeKo-1 cells assessed as combination index at 5 uM incubated for 48 hrs in presence of 1.25 uM 4-(3-(4-(4-methoxy-6-morpholino-1,3,5-triazin-2-yl)phenyl)urea)-N-(2-ethylamino)ethylbenzamide by resazurin dye based fluorescence microplate reader analysis; assay type: functional
JeKo-1 [28] = test: Synergistic antiproliferative activity against human JeKo-1 cells assessed as combination index at 2.5 uM incubated for 48 hrs in presence of 1.25 uM 4-(3-(4-(4-methoxy-6-morpholino-1,3,5-triazin-2-yl)phenyl)urea)-N-(2-ethylamino)ethylbenzamide by resazurin dye based fluorescence microplate reader analysis; assay type: functional
JeKo-1 [29] = test: Synergistic antiproliferative activity against human JeKo-1 cells assessed as combination index at 1.25 uM incubated for 48 hrs in presence of 1.25 uM 4-(3-(4-(4-methoxy-6-morpholino-1,3,5-triazin-2-yl)phenyl)urea)-N-(2-ethylamino)ethylbenzamide by resazurin dye based fluorescence microplate reader analysis; assay type: functional
JeKo-1 [30] = test: Synergistic antiproliferative activity against human JeKo-1 cells assessed as combination index at 0.625 uM incubated for 48 hrs in presence of 1.25 uM 4-(3-(4-(4-methoxy-6-morpholino-1,3,5-triazin-2-yl)phenyl)urea)-N-(2-ethylamino)ethylbenzamide by resazurin dye based fluorescence microplate reader analysis; assay type: functional
JeKo-1 [31] = test: Synergistic antiproliferative activity against human JeKo-1 cells assessed as combination index at 5 uM incubated for 48 hrs in presence of 0.625 uM 4-(3-(4-(4-methoxy-6-morpholino-1,3,5-triazin-2-yl)phenyl)urea)-N-(2-ethylamino)ethylbenzamide by resazurin dye based fluorescence microplate reader analysis; assay type: functional
JeKo-1 [32] = test: Synergistic antiproliferative activity against human JeKo-1 cells assessed as combination index at 2.5 uM incubated for 48 hrs in presence of 0.625 uM 4-(3-(4-(4-methoxy-6-morpholino-1,3,5-triazin-2-yl)phenyl)urea)-N-(2-ethylamino)ethylbenzamide by resazurin dye based fluorescence microplate reader analysis; assay type: functional
JeKo-1 [33] = test: Synergistic antiproliferative activity against human JeKo-1 cells assessed as combination index at 1.25 uM incubated for 48 hrs in presence of 0.625 uM 4-(3-(4-(4-methoxy-6-morpholino-1,3,5-triazin-2-yl)phenyl)urea)-N-(2-ethylamino)ethylbenzamide by resazurin dye based fluorescence microplate reader analysis; assay type: functional
JeKo-1 [34] = test: Synergistic antiproliferative activity against human JeKo-1 cells assessed as combination index at 0.625 uM incubated for 48 hrs in presence of 0.625 uM 4-(3-(4-(4-methoxy-6-morpholino-1,3,5-triazin-2-yl)phenyl)urea)-N-(2-ethylamino)ethylbenzamide by resazurin dye based fluorescence microplate reader analysis; assay type: functional

Chain of Histone deacetylase 3 (O15379 whole entry): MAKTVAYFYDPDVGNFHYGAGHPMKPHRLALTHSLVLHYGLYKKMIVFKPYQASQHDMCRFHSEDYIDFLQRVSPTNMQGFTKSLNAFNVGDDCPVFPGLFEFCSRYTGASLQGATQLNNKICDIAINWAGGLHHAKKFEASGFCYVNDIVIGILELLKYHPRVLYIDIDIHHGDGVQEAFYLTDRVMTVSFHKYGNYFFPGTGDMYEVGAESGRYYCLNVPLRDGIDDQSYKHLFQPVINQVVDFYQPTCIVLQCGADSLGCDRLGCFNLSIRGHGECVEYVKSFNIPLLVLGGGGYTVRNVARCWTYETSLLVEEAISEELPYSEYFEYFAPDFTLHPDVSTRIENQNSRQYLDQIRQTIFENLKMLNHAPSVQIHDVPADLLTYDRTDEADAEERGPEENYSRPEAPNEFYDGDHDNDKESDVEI
Chain of Histone deacetylase 2 (Q92769 whole entry): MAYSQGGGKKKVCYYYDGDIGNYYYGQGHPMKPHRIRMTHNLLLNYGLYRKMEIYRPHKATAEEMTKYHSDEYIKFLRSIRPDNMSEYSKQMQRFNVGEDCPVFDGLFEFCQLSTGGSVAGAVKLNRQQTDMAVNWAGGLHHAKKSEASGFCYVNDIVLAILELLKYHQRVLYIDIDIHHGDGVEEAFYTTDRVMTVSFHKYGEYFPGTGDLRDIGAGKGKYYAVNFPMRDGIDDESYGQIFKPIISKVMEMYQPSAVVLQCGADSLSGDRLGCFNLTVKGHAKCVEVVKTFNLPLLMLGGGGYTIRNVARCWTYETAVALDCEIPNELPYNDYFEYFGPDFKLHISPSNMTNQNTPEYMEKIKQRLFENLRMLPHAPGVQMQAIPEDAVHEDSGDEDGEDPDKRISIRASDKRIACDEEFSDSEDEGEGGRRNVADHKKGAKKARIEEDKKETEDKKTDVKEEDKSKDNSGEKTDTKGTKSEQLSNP
Chain of Phosphatidylinositol 4,5-bisphosphate 3-kinase catalytic subunit alpha isoform (P42336 whole entry, canonical isoform): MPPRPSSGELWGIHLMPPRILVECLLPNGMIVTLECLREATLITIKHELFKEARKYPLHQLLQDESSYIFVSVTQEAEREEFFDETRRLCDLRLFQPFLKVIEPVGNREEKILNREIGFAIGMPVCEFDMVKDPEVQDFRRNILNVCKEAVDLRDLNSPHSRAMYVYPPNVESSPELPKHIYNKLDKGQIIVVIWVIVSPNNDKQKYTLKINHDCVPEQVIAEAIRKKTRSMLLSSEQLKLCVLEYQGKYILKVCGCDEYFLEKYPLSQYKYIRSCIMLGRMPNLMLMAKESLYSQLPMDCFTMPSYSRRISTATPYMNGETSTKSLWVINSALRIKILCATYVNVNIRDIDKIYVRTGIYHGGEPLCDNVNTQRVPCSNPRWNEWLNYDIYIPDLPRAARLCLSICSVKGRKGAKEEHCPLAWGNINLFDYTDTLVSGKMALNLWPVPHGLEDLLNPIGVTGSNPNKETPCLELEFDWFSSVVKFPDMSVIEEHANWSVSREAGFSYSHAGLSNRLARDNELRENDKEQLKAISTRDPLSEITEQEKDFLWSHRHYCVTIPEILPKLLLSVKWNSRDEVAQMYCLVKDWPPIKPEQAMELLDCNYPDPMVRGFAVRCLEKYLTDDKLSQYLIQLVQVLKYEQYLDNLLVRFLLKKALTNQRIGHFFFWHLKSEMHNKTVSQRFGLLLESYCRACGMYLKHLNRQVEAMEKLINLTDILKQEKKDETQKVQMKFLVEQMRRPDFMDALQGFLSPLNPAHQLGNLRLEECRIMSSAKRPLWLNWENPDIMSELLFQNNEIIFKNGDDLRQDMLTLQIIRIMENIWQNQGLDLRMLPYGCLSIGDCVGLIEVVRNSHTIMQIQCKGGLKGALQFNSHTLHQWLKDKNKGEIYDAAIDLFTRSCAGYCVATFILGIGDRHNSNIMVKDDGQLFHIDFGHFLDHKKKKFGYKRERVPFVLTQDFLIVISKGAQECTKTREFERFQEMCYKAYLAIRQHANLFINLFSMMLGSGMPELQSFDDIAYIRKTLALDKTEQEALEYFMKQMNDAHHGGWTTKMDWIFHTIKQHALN
Chain of Histone deacetylase 1 (Q13547 whole entry): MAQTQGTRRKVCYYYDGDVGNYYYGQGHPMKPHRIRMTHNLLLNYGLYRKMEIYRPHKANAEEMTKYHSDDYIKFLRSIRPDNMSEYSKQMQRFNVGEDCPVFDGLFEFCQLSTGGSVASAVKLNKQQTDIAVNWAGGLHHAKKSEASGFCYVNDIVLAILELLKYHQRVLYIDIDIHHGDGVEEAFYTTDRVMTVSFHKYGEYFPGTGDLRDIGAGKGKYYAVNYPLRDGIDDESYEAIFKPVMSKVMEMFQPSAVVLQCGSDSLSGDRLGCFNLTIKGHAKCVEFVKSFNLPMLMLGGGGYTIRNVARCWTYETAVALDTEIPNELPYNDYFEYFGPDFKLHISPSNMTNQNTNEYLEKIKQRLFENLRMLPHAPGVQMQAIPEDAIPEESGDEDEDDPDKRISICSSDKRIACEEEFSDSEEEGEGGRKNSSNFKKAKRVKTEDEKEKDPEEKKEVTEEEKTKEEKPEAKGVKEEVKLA

SMILES	IC50 [1] [µM]	IC50 (MM1.S) [µM]	IC50 (HL-60) [µM]	IC50 (MDA-MB-231) [µM]	IC50 (Histone deacetylase 1) [µM]	IC50 (Histone deacetylase 2) [µM]	IC50 (Histone deacetylase 3) [µM]	IC50 (JeKo-1 [2]) [µM]	IC50 at 48 h [3] [µM]	viability at 0.25 µM (JeKo-1 [4]) [%]	Activity (JeKo-1 [5]) [%]	Activity (JeKo-1 [6]) [%]	viability at 0.5 µM (JeKo-1 [7]) [%]	Activity (JeKo-1 [8]) [%]	Activity (JeKo-1 [9]) [%]	viability at 1 µM (JeKo-1 [10]) [%]	Activity (JeKo-1 [11]) [%]	Activity (JeKo-1 [12]) [%]	other results
Nc1ccccc1NC(=O)CCCCCCNC(=O)c1ccc(NC(=O)Nc2ccc(-c3nc(N4CCOCC4)nc(N4CCOCC4)n3)cc2)cc1	0.0293	–	–	–	0.404	0.295	0.0765	–	–	–	–	–	–	–	–	–	–	–	–
Nc1ccccc1NC(=O)CCCCCNC(=O)c1ccc(NC(=O)Nc2ccc(-c3nc(N4CCOCC4)nc(N4CCOCC4)n3)cc2)cc1	0.0173	–	–	–	0.227	0.602	0.0992	–	–	–	–	–	–	–	–	–	–	–	–
CC(=O)Nc1ccc(C(=O)Nc2ccccc2N)cc1 [TACEDINALINE]	> 10	4.7	2.8	10.9	–	–	–	1.9	> 100	92.6	5.6	0.37	92.4	5.62	0.51	92.4	4.73	0.59	Activity (JeKo-1 [16]): 1.46%; Activity (JeKo-1 [17]): 1.48%; Activity (JeKo-1 [18]): 2.3%; CI (JeKo-1 [19]): 0.191; CI (JeKo-1 [20]): 0.119; CI (JeKo-1 [21]): 0.191; CI (JeKo-1 [22]): 0.43; CI (JeKo-1 [23]): 0.221; CI (JeKo-1 [24]): 0.274; CI (JeKo-1 [25]): 0.342; CI (JeKo-1 [26]): 0.475; CI (JeKo-1 [27]): 0.39; CI (JeKo-1 [28]): 0.443; CI (JeKo-1 [29]): 0.431; CI (JeKo-1 [30]): 0.575; CI (JeKo-1 [31]): 0.61; CI (JeKo-1 [32]): 0.592; CI (JeKo-1 [33]): 0.629; CI (JeKo-1 [34]): 0.711

The next lines start with results.

IC50 [1] [µM]	IC50 (MM1.S) [µM]	IC50 (HL-60) [µM]	IC50 (MDA-MB-231) [µM]	IC50 (Histone deacetylase 1) [µM]	IC50 (Histone deacetylase 2) [µM]	IC50 (Histone deacetylase 3) [µM]	SMILES	IC50 (JeKo-1 [2]) [µM]	IC50 at 48 h [3] [µM]	viability at 0.25 µM (JeKo-1 [4]) [%]	Activity (JeKo-1 [5]) [%]	Activity (JeKo-1 [6]) [%]	viability at 0.5 µM (JeKo-1 [7]) [%]	Activity (JeKo-1 [8]) [%]	Activity (JeKo-1 [9]) [%]	viability at 1 µM (JeKo-1 [10]) [%]	Activity (JeKo-1 [11]) [%]	Activity (JeKo-1 [12]) [%]	other results
0.0024	3.3	3.1	4.2	–	–	–	CNCCNC(=O)c1ccc(NC(=O)Nc2ccc(-c3nc(OC)nc(N4CCOCC4)n3)cc2)cc1	1.1	> 100	93.9	4.5	0.73	94.8	3.51	0.41	91.5	8.29	0.4	inhibition [13]: Active; Activity (JeKo-1 [14]): inactive; Activity (JeKo-1 [15]): Active
0.017	–	–	–	> 10	> 10	0.499	Nc1cc(F)ccc1NC(=O)c1ccc(NC(=O)Nc2ccc(-c3nc(N4CCOCC4)nc(N4CCOCC4)n3)cc2)cc1	–	–	–	–	–	–	–	–	–	–	–	–

From ChEMBL document CHEMBL5634161, “Discovery of benzamide-based PI3K/HDAC dual inhibitors with marked pro-apoptosis activity in lymphoma cells” (Eur J Med Chem, 2023)
